Test systems include NCI-H460 lung; UACC-62 melanoma; EKVX NSCLC; HOP-92 NSCLC; M19-MEL melanoma; XF 498 CNS; CAKI-1 renal; HCT-116 colon; DMS 273 small cell lung; MDA-MB-231 breast; MDA-MB-435.
Assay in all cases: NCI-60 cell line screen, 48 h

The structures appear in SMILES notation. Values joined by “and” are separate entries in the source; they are usually repeats but may differ in a detail not shown here. Equal values may be shown once.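 Tested at 5 concentrations; 48 h exposure; 96-well plates; endpoints linearly interpolated, else capped at highest concentration. GI50 marks 50% less growth. TGI: concentration producing complete growth inhibition.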

Regarding `N/N=C1\C(=O)N(C2CCCCCC2)C(=O)C1C(=O)NC1CCCCCC1` (stereo not drawn), the TGI with NCI-H460 lung was > 100 µM; in the test with UACC-62 melanoma it was 41.6 µM; with EKVX NSCLC it was > 100 µM; in the test on HOP-92 NSCLC, 41.6 µM; in the test on M19-MEL melanoma, > 100 µM.

Regarding `O=C(CCC(=O)Nc1ccc(Cl)c(Cl)c1)CC(=O)c1ccc(Br)cc1`, the TGI in the test on XF 498 CNS, with UACC-62 melanoma, with EKVX NSCLC, in the test with HOP-92 NSCLC, in the test with CAKI-1 renal and in the test on HCT-116 colon was > 100 µM throughout. Also, in the test with M19-MEL melanoma, the TGI is > 100 µM.

On to `Cc1nn[n-]n1.N.N.N.N.N.[Cl-].[Co+3]`, for which the GI50 in the test with DMS 273 small cell lung, in the test with NCI-H460 lung, in the test with UACC-62 melanoma, with EKVX NSCLC, in the test on HOP-92 NSCLC and in the test with CAKI-1 renal was > 100 µM throughout. For the same compound, the GI50 with HCT-116 colon is > 100 µM. For the same compound, the TGI in the test with DMS 273 small cell lung, in the test with NCI-H460 lung, in the test on UACC-62 melanoma, in the test with EKVX NSCLC, in the test with HOP-92 NSCLC and in the test on CAKI-1 renal was > 100 µM each time. The TGI in the test on HCT-116 colon is > 100 µM.

`COC(=O)/C=C(C)/C=C/C1OC(C)OCC1O` (stereo not drawn): the TGI in the test with DMS 273 small cell lung, in the test on NCI-H460 lung, in the test with UACC-62 melanoma, with EKVX NSCLC, in the test on HOP-92 NSCLC and with CAKI-1 renal was > 100 µM throughout. Also, in the test with M19-MEL melanoma, the TGI is > 100 µM.

On to `N#CN/C(N)=N/C/N=C(\N)NC#N`, for which the TGI in the test with DMS 273 small cell lung, with NCI-H460 lung, in the test on UACC-62 melanoma, in the test with EKVX NSCLC, with HOP-92 NSCLC and in the test with CAKI-1 renal was > 100 µM in each case. Moreover, the TGI in the test with HCT-116 colon and in the test with M19-MEL melanoma was > 100 µM throughout.

For `CCNC(=O)COc1ccc(Br)cc1Br`, the TGI with DMS 273 small cell lung is > 100 µM; with NCI-H460 lung it was > 100 µM; in the test with UACC-62 melanoma, > 100 µM; with EKVX NSCLC, 34.3 µM; in the test on HOP-92 NSCLC it was > 100 µM; with CAKI-1 renal, > 100 µM. The TGI in the test with HCT-116 colon and with M19-MEL melanoma was > 100 µM in each case.

As for `CCC1CC2C(=O)N(c3ccccc3)C(=O)C2c2[nH]c3ccccc3c21` (stereo not drawn), the TGI in the test with XF 498 CNS is 42 µM; in the test on NCI-H460 lung it was 64.6 µM; in the test with UACC-62 melanoma it was > 100 µM; in the test with EKVX NSCLC, 95.3 µM; in the test on M19-MEL melanoma, 79.9 µM.

Consider `O=C(c1nc2ccc([N+](=O)[O-])cc2[nH]c1=O)C(O)c1ccc2c(c1)OCO2` (stereo not drawn), for which the TGI with MDA-MB-231 breast, in the test on DMS 273 small cell lung, in the test on NCI-H460 lung, with UACC-62 melanoma, with EKVX NSCLC and with MDA-MB-435 was > 100 µM each time. For the same compound, the TGI with HOP-92 NSCLC, in the test with CAKI-1 renal, in the test with HCT-116 colon and in the test with M19-MEL melanoma was > 100 µM in each case.

Take `CCc1ccc(NC(=O)NC(=O)c2ccccc2[N+](=O)[O-])cc1Oc1ncc(Cl)cn1`: the TGI with MDA-MB-231 breast is 52.3 µM; with NCI-H460 lung, 0.0508 µM; in the test with UACC-62 melanoma it was > 100 µM; in the test with EKVX NSCLC it was > 100 µM; with MDA-MB-435, 0.0332 µM; with HOP-92 NSCLC it was > 100 µM. Also, the TGI was 3.62 µM in the test with HCT-116 colon and > 100 µM with M19-MEL melanoma.

As for `CC1=C[C@H]2c3c([nH]c4ccccc34)C(c3c[nH]c4ccccc34)[C@H]2CC1` (stereo partly drawn), the TGI in the test on DMS 273 small cell lung worked out at 15.8 µM; in the test on NCI-H460 lung, 8.21 µM; with UACC-62 melanoma, 23.1 µM; in the test with EKVX NSCLC, 29.7 µM; with HOP-92 NSCLC it was 5.34 µM; with CAKI-1 renal it was 26.3 µM. The TGI with HCT-116 colon amounted to 11.9 µM; in the test on M19-MEL melanoma it was 22.9 µM.

Turning to `NC1=C(NC(=O)Cc2ccccc2F)C(=O)c2ccccc2C1=O`, the TGI with DMS 273 small cell lung is > 100 µM; in the test on NCI-H460 lung, > 100 µM; in the test on UACC-62 melanoma it was > 100 µM; in the test on EKVX NSCLC, > 100 µM; in the test on HOP-92 NSCLC it was 98.1 µM; in the test with CAKI-1 renal, > 100 µM. Further, the TGI with HCT-116 colon is > 100 µM; in the test on M19-MEL melanoma, 24.5 µM.

`COc1ccc(NC(=O)CSC2=C(Nc3cccc(Br)c3)C(=O)N(Cc3ccccc3)C2=O)cc1Cl`: the GI50 in the test with MDA-MB-231 breast is > 100 µM; with NCI-H460 lung, 29.9 µM; in the test on UACC-62 melanoma, 46.2 µM; in the test with EKVX NSCLC, 84.8 µM; in the test on MDA-MB-435 it was > 100 µM; in the test with HOP-92 NSCLC, 24.5 µM. The results for the GI50 in the test on CAKI-1 renal and in the test on HCT-116 colon were > 100 µM and 32.8 µM, respectively. The TGI with MDA-MB-231 breast, in the test on NCI-H460 lung, with UACC-62 melanoma, in the test with EKVX NSCLC, in the test on MDA-MB-435 and in the test with HOP-92 NSCLC was > 100 µM in each case. Besides, the TGI in the test with CAKI-1 renal and in the test on HCT-116 colon was > 100 µM each time.

Turning to `S=c1snc2n1CCN2`, the GI50 in the test on MDA-MB-231 breast is 91.1 µM; in the test on NCI-H460 lung, 54.9 µM; in the test with UACC-62 melanoma, 95.5 µM; with EKVX NSCLC it was > 100 µM; in the test on MDA-MB-435, > 100 µM; in the test with HOP-92 NSCLC, > 100 µM. Moreover, the figures for the GI50 with CAKI-1 renal and in the test with HCT-116 colon were > 100 µM and 22.6 µM, respectively. For the same compound, the TGI in the test on MDA-MB-231 breast, in the test on NCI-H460 lung, in the test with UACC-62 melanoma, in the test with EKVX NSCLC, with MDA-MB-435 and in the test on HOP-92 NSCLC was > 100 µM in each case. Besides, the TGI with CAKI-1 renal and in the test with HCT-116 colon was > 100 µM throughout.

On to `CC(C)Nc1cc(-c2c[nH]c(C(=O)N[C@H](CO)c3cccc(Cl)c3)c2)c(Cl)cn1`, for which the GI50 is 1.67 µM and 1.02 µM in the test with MDA-MB-231 breast; 1.35 µM and 1.05 µM in the test on NCI-H460 lung; 0.0826 µM and 0.13 µM in the test with UACC-62 melanoma; 1.97 µM and 0.783 µM in the test with EKVX NSCLC; 0.312 µM and 0.335 µM in the test with MDA-MB-435; 0.312 µM and 0.233 µM in the test with HOP-92 NSCLC. Further, the GI50 with CAKI-1 renal is 1.17 µM and 1.87 µM; with HCT-116 colon it was 0.154 µM and 0.162 µM. Further, the TGI with MDA-MB-231 breast was 13.6 µM and > 8.38 µM; in the test with NCI-H460 lung, 15.8 µM and > 10 µM; in the test with UACC-62 melanoma it was 12.3 µM and > 10 µM; in the test with EKVX NSCLC, 15.4 µM and > 10 µM; in the test with MDA-MB-435, 14.9 µM and > 10 µM; in the test on HOP-92 NSCLC, 2.84 µM and 1.81 µM. Also, the TGI is 19.1 µM and > 10 µM in the test with CAKI-1 renal; 11.4 µM and > 10 µM in the test with HCT-116 colon.

`COc1ccc2c(=O)cc(-c3ccccc3)[nH]c2c1`: the GI50 in the test on MDA-MB-231 breast was 1.92 µM; in the test with NCI-H460 lung, 0.397 µM; with UACC-62 melanoma, 0.431 µM; in the test with EKVX NSCLC, 2.25 µM; in the test on MDA-MB-435, 0.18 µM; in the test with HOP-92 NSCLC, 0.378 µM. The GI50 in the test with CAKI-1 renal was 0.323 µM; in the test on HCT-116 colon it was 0.446 µM. Besides, the TGI in the test with MDA-MB-231 breast was > 100 µM; in the test with NCI-H460 lung it was > 42 µM; with UACC-62 melanoma, > 100 µM; in the test with EKVX NSCLC, > 100 µM; in the test on MDA-MB-435 it was 0.523 µM; with HOP-92 NSCLC, > 100 µM. Besides, the TGI in the test with CAKI-1 renal and with HCT-116 colon was > 100 µM throughout.

With `CCNc1cc(-c2cccc(OC(F)(F)F)c2)nc2ccc(N3CCCC3)cc12`, the GI50 with MDA-MB-231 breast was 1.58 µM; in the test on NCI-H460 lung, 1.75 µM; in the test with UACC-62 melanoma, 1.57 µM; with EKVX NSCLC it was 2.49 µM; with MDA-MB-435, 1.56 µM; in the test on HOP-92 NSCLC, 1.21 µM. Further, the GI50 with CAKI-1 renal was 1.81 µM; in the test with HCT-116 colon, 1.52 µM. Besides, the TGI is 3.16 µM with MDA-MB-231 breast; 4.1 µM in the test with NCI-H460 lung; 3.07 µM in the test on UACC-62 melanoma; 11.1 µM in the test on EKVX NSCLC; 3.05 µM in the test with MDA-MB-435; 3.24 µM in the test with HOP-92 NSCLC. Moreover, the TGI came to 4.9 µM with CAKI-1 renal and 3.43 µM in the test with HCT-116 colon.

Consider `FC(F)(c1ccc2ncccc2c1)c1nnc2ccc(-c3ccncc3)nn12`, for which the GI50 with MDA-MB-231 breast was 31 µM; in the test on NCI-H460 lung it was > 100 µM; with UACC-62 melanoma it was > 100 µM; in the test on EKVX NSCLC, 21.4 µM; in the test with MDA-MB-435 it was > 100 µM; in the test with HOP-92 NSCLC, 18.3 µM. The GI50 in the test on CAKI-1 renal was 25.1 µM; in the test with HCT-116 colon, 95.8 µM. Also, the TGI in the test on MDA-MB-231 breast, with NCI-H460 lung, in the test on UACC-62 melanoma, with EKVX NSCLC, in the test on MDA-MB-435 and with HOP-92 NSCLC was > 100 µM throughout. Moreover, the TGI with CAKI-1 renal and in the test with HCT-116 colon was > 100 µM in each case.

Regarding `COc1ccc(C2OC(=O)c3ccc4ccccc4c32)c(C)c1` (stereo not drawn), the TGI in the test on MDA-MB-231 breast was > 100 µM; with NCI-H460 lung, > 54.3 µM; in the test on UACC-62 melanoma, > 100 µM; in the test with EKVX NSCLC, > 87.8 µM; in the test on MDA-MB-435 it was 6.02 µM; with HOP-92 NSCLC, > 89.8 µM. For the same compound, the results for the TGI with CAKI-1 renal and in the test with HCT-116 colon were > 100 µM and > 45.7 µM, respectively.

For the compound `CC[C@H](Nc1ncnc2nc[nH]c12)c1nc2cccc(F)c2c(=O)n1-c1ccccc1`, the GI50 in the test with MDA-MB-231 breast is 29.8 µM; with NCI-H460 lung, 36.3 µM; with UACC-62 melanoma, 3.52 µM; in the test with EKVX NSCLC it was 41.5 µM; in the test on MDA-MB-435, 19.1 µM; with HOP-92 NSCLC it was 4.86 µM. Also, the GI50 in the test on CAKI-1 renal is 9.94 µM; with HCT-116 colon it was 39.4 µM. The TGI with MDA-MB-231 breast was > 100 µM; in the test on NCI-H460 lung it was > 100 µM; in the test with UACC-62 melanoma, > 92.4 µM; in the test with EKVX NSCLC, > 100 µM; in the test on MDA-MB-435, > 74.6 µM; in the test with HOP-92 NSCLC it was > 60.4 µM. In addition, the TGI in the test with CAKI-1 renal and in the test on HCT-116 colon was > 100 µM throughout.

The record behind these values is PubChem BioAssay (NCI).
